Format in all cases: in vivo, human
The test system of one test is ABCC4. Nature of the test: Cox proportional hazard model using ABCC4 ΔCt values in qRT-PCR of NSCLC patients treated with chemotherapy. Conditions: ABCC4 expression; patients treated with the named agent(s). The text has this: (§1) Patient samples. All NSCLC patients were staged I, II, or IIIA at the time of diagnosis. Tumor tissues were collected in surgical resections and were then formalin fixed or paraffin embedded until used for RNA extraction. Tumor cell content was above 50% for qRT-PCR assays. Those with missing AJCC staging information, missing histology, death within 30 days of resection or from other disease conditions were excluded from further analysis. A total of 122 NSCLC patient samples were obtained from Case Western Reserve University (CWRU) Comprehensive Cancer Center. […] The tissue collection in this study was approved by an Institutional Review Board (IRB) at each institution.
(§2) RNA extraction, and quality and concentration assessments. […] The quality and integrity of the RNA, the 28S to 18S ratio, and a visual image of the 28S and 18S bands were evaluated on the 2100 Bioanalyzer (Agilent Technologies, CA). […] The RNA concentration of each sample was assessed using a Nanodrop-1000 Spectrophotometer (NanoDrop Tech, Germany). […]
(§3) Real-time quantitative RT-PCR low-density arrays. […]
(§4) Three hundred thirty seven (337) tumor samples were analyzed with good RNA quality using TaqMan microfluidic low-density array (LDA) plates on an ABI 7900HT Fast RT-PCR instrument (Applied Biosystems).

A further test has as its system SLC39A8. Description: Cox proportional hazard model using SLC39A8 ΔCt values in qRT-PCR of NSCLC patients treated with chemotherapy. Conditions: SLC39A8 expression.
Source text: as §1, §2, §3, §4

The next test deals with FUT7. Description: Cox proportional hazard model using FUT7 ΔCt values in qRT-PCR of NSCLC patients treated with chemotherapy. Conditions: FUT7 expression.
Source text: Patient samples. All NSCLC patients were staged I, II, or IIIA at the time of diagnosis. Tumor tissues were collected in surgical resections and were then formalin fixed or paraffin embedded until used for RNA extraction. Tumor cell content was above 50% for qRT-PCR assays. Those with missing AJCC staging information, missing histology, death within 30 days of resection or from other disease conditions were excluded from further analysis. A total of 122 NSCLC patient samples were obtained from Case Western Reserve University (CWRU) Comprehensive Cancer Center. Total RNA of good quality was extracted from 89 tumor specimens. […]
RNA extraction, and quality and concentration assessments. […] The quality and integrity of the RNA, the 28S to 18S ratio, and a visual image of the 28S and 18S bands were evaluated on the 2100 Bioanalyzer (Agilent Technologies, CA). RNA assessed as having good quality from […] tumor samples was included for further analysis. The RNA concentration of each sample was assessed using a Nanodrop-1000 Spectrophotometer (NanoDrop Tech, Germany). […]
as §3
Three hundred thirty seven (337) tumor samples were analyzed with good RNA quality using TaqMan microfluidic low-density array (LDA) plates on an ABI 7900HT Fast RT-PCR instrument (Applied Biosystems). Total RNA samples were analyzed on an Agilent 2100 Bioanalyzer RNA 6000 Nano LabChip. […]

As to `CC(=O)O[C@H]1C(=O)[C@@]2(C)[C@H]([C@H](OC(=O)c3ccccc3)[C@]3(O)C[C@H](OC(=O)[C@H](O)[C@@H](NC(=O)c4ccccc4)c4ccccc4)C(C)=C1C3(C)C)[C@]1(OC(C)=O)CO[C@@H]1C[C@@H]2O` [Taxol, paclitaxel], the Chemosensitive/resistant result in the test on ABCC4 and in the test on SLC39A8 was “Chemoresistant” each time.

`N.N.O=C([O-])C1(C(=O)[O-])CCC1.[Pt+2]` [Carboplatin, carboplatin]: in the test with FUT7, the Chemosensitive/resistant result was “Chemosensitive”.

In the case of `Nc1nc2[nH]cc(CCc3ccc(C(=O)N[C@@H](CCC(=O)O)C(=O)O)cc3)c2c(=O)[nH]1` [Alimta, pemetrexed], the Chemosensitive/resistant entry in the test on SLC39A8 is listed as “Chemoresistant”.

The record behind these values is US20230106465A1, “7-Gene Prognostic and Predictive Assay for Non-Small Cell Lung Cancer in Formalin Fixed and Paraffin Embedded Samples” (West Virginia University, priority 2019, published 2023).
